Among the data in patent US9540343B2 (Gilead Sciences, Inc., priority 2011, dated 2017) are inhibition and CC50 values, retold here.

One data set deals with HIV-IIIb. In words: Test A: Antiviral assay in MT4 cells. The class given is cell-based, HIV-1. The following applies: Human immunodeficiency virus 1, IIIB, MT4, 120 h, read-out: % inhibition at 2 μM, percent inhibition of virus-induced cell killing, from dose response curve at 2 uM drug; MT-4 cells infected with HIV-IIIb, 5 days, CellTiter-Glo. A general note: In ATP-based viability assays light output follows the ATP content of the culture.

Another data set in a line: in vitro. The following applies: human, uninfected MT-4 cells, CC50 (nM), same protocol as Test A, CellTiter-Glo. Summed up:
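Cytoprotection read-out: CellTiter-Glo chemiluminescence after 5 days at 37 °C of HIV-IIIb-infected MT-4 cells (m.o.i. 0.003) with compound in 10-point 3-fold dilutions, quadruplicate, 10% FBS. Cytotoxicity (CC50) measured identically without virus.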

Where only a bound is given, the exact number is not on record here.

Broadly, the inhibition is the change of the read-out against control, counted positive when it falls. As a reminder, the CC50 is the concentration giving 50% cytotoxicity.

For the compound `NC(=O)c1cc(-c2cccnc2[C@H](Cc2cc(F)cc(F)c2)NC(=O)Cn2ncc3c2CCCC3)ccc1F` [Example 471, (S)-5-(2-(2-(3,5-difluorophenyl)-1-(2-(4,5,6,7-tetrahydro-1H-indazol-1-yl)acetamido)ethyl)pyridin-3-yl)-2-fluorobenzamide], the inhibition at 2 µM in the data set on HIV-IIIb was determined as 62%. Also, the CC50 at 5 days in the data set “in vitro” is above 53200 nM.

Consider `CCc1c(-c2ccccc2)c(C(F)(F)F)nn1CC(=O)N[C@@H](Cc1cc(F)cc(F)c1)c1ncccc1-c1ccc(F)c(C(N)=O)c1` [Example 290, (S)-5-(2-(2-(3,5-difluorophenyl)-1-(2-(5-ethyl-4-phenyl-3-(trifluoromethyl)-1H-pyrazol-1-yl)acetamido)ethyl)pyridin-3-yl)-2-fluorobenzamide], for which, in the data set with HIV-IIIb, the inhibition at 2 µM turned out to be 4%. In the data set “in vitro”, this compound showed a cytotoxic concentration (CC50) at 5 days of 11500 nM.

Consider `O=C(Cn1nc(C(F)F)c2c1C(F)(F)C1CC21)N[C@@H](Cc1cc(F)cc(F)c1)c1ncccc1-c1ccc(NC(=O)NC2CC2)cc1` (stereo partly drawn) [Example 114, (S)—N-(1-(3-(4-(3-cyclopropylureido)phenyl)-pyridin-2-yl)-2-(3,5-difluorophenyl)ethyl)-2-(3-(difluoromethyl)-5,6-dihydro-4,5-(methano)-6,6-difluoro-cyclopenta[c]pyrazol-1(4H)-yl)acetamide], for which the inhibition at 2 µM in the data set with HIV-IIIb came to 32%. The CC50 at 5 days in “in vitro” is above 53200 nM.

Take `NC(=O)c1cc(-c2cccnc2[C@H](Cc2cc(F)cc(F)c2)NC(=O)Cn2nc(C(F)(F)OCc3ccccn3)c3c2CCCC3)ccc1F` [Example 135, (S)-5-(2-(1-(2-(3-(difluoro(pyridin-2-ylmethoxy)methyl)-4,5,6,7-tetrahydro-1H-indazol-1-yl)acetamido)-2-(3,5-difluorophenyl)ethyl)pyridin-3-yl)-2-fluorobenzamide]: the inhibition at 2 µM in the data set with HIV-IIIb was determined as 53%. The same compound registered a CC50 at 5 days in “in vitro” of 21100 nM.

`NC(=O)c1cccc(-c2cccnc2[C@H](Cc2cc(F)cc(F)c2)NC(=O)Cc2c[nH]c3cc(C(F)(F)F)ccc23)c1` [Example 527E, (S)-3-(2-(2-(3,5-difluorophenyl)-1-(2-(6-(trifluoromethyl)-1H-indol-3-yl)acetamido)ethyl)pyridin-3-yl)benzamide]: the inhibition at 2 µM with HIV-IIIb is 66%. The CC50 at 5 days in the data set “in vitro” came to 10600 nM.

Consider `N#Cc1nn(CC(=O)N[C@@H](Cc2cc(F)cc(F)c2)c2ncccc2-c2ccc(F)c(C(N)=O)c2)cc1C1CC1` [Example 337, (S)-5-(2-(1-(2-(3-cyano-4-cyclopropyl-1H-pyrazol-1-yl)acetamido)-2-(3,5-difluorophenyl)ethyl)pyridin-3-yl)-2-fluorobenzamide], for which the inhibition at 2 µM with HIV-IIIb was found to be 20%. This compound had a CC50 at 5 days in “in vitro” of 27900 nM.

`Cc1nc2n(CC(=O)N[C@@H](Cc3cc(F)cc(F)c3)c3ncccc3-c3ccc(F)c(C(N)=O)c3)c3ccccc3n2n1` [Example 600, (S)-5-(2-(2-(3,5-difluorophenyl)-1-(2-(2-methyl-4H-benzo[4,5]imidazo[1,2-b][1,2,4]triazol-4-yl)acetamido)ethyl)pyridin-3-yl)-2-fluorobenzamide]: the inhibition at 2 µM with HIV-IIIb stood at 9%. For the same compound, the CC50 at 5 days in “in vitro” was above 53200 nM.

With `O=C(Cn1nc(C(F)(F)F)c2c1CCCC2)N[C@@H](Cc1cc(F)cc(F)c1)c1ncccc1-c1cccc(C(=O)N2CCOCC2)c1` [Example 424, (S)—N-(2-(3,5-difluorophenyl)-1-(3-(3-(morpholine-4-carbonyl)phenyl)pyridin-2-yl)ethyl)-2-(3-(trifluoromethyl)-4,5,6,7-tetrahydro-1H-indazol-1-yl)acetamide], in the data set on HIV-IIIb, the inhibition at 2 µM is 78%. This compound showed a CC50 at 5 days in the data set “in vitro” of 14200 nM.

For the compound `O=C(Cn1nc(C(F)F)c2c1C(F)(F)C1CC21)N[C@@H](Cc1cc(F)cc(F)c1)c1ncccc1-c1ccc(OC(F)F)cc1` (stereo partly drawn) [Example 231, N—((S)-1-(3-(4-(difluoromethoxy)phenyl)pyridin-2-yl)-2-(3,5-difluorophenyl)ethyl)-2-(3-(difluoromethyl)-5,5-difluoro-3b,4,4a,5-tetrahydro-1H-cyclopropa[3,4]cyclopenta[1,2-c]pyrazol-1-yl)acetamide], the inhibition at 2 µM in the data set on HIV-IIIb was 79%. In the data set “in vitro”, this compound returned a CC50 at 5 days of 43200 nM.

Take `Cc1ccc2ccn(CC(=O)N[C@@H](Cc3cc(F)cc(F)c3)c3ncccc3-c3ccc(F)c(C(N)=O)c3)c2c1` [Example 545, (S)-5-(2-(2-(3,5-difluorophenyl)-1-(2-(6-methyl-1H-indol-1-yl)acetamido)ethyl)pyridin-3-yl)-2-fluorobenzamide]: the inhibition at 2 µM in the data set on HIV-IIIb was determined as 37%. Moreover, in “in vitro”, it took 15900 nM to reach half-maximal cytotoxicity (CC50 at 5 days).

On to `COC(=O)c1c2c(nn1CC(=O)N[C@@H](Cc1cc(F)cc(F)c1)c1ncccc1-c1ccc(F)c(C(N)=O)c1)COC2` [Example 453, (S)-methyl 2-(2-((1-(3-(3-carbamoyl-4-fluorophenyl)pyridin-2-yl)-2-(3,5-difluorophenyl)ethyl)amino)-2-oxoethyl)-4,6-dihydro-2H-furo[3,4-c]pyrazole-3-carboxylate], for which the inhibition at 2 µM with HIV-IIIb amounted to 3%. Also, the CC50 at 5 days in “in vitro” was above 53200 nM.

For `NC(=O)c1cc(-c2cccnc2[C@H](Cc2cc(F)cc(F)c2)NC(=O)Cn2nc(C(F)(F)F)cc2C(F)(F)F)ccc1F` [Example 542, (S)-5-(2-(1-(2-(3,5-bis(trifluoromethyl)-1H-pyrazol-1-yl)acetamido)-2-(3,5-difluorophenyl)ethyl)pyridin-3-yl)-2-fluorobenzamide], the inhibition at 2 µM in the data set with HIV-IIIb is 1%. In the data set “in vitro”, this compound returned a CC50 at 5 days of 33600 nM.

On to `NC(=O)c1cc(-c2cccnc2[C@H](Cc2cc(F)cc(F)c2)NC(=O)[C@@H]2CC(=O)CN2)ccc1F` [Example 167, (S)—N—((S)-1-(3-(3-carbamoyl-4-fluorophenyl)pyridin-2-yl)-2-(3,5-difluorophenyl)ethyl)-4-oxopyrrolidine-2-carboxamide], for which the inhibition at 2 µM in the data set on HIV-IIIb was determined as 0%. In “in vitro”, this compound showed a CC50 at 5 days above 53000 nM.

Consider `Cc1cc(-c2cccnc2[C@H](Cc2cc(F)cc(F)c2)NC(=O)Cc2c[nH]c3ccc(F)cc23)cnc1F` [Example 419], for which the inhibition at 2 µM in the data set with HIV-IIIb turned out to be 42%. In “in vitro”, this compound showed a CC50 at 5 days of 27100 nM.

With `CC(C)(C)OC(=O)N1C[C@@H](Oc2ccccc2)C[C@H]1C(=O)N[C@@H](Cc1cc(F)cc(F)c1)c1ncccc1-c1ccc(F)c(C(N)=O)c1` [Example 161, (2S,4S)-tert-butyl 2-((S)-1-(3-(3-carbamoyl-4-fluorophenyl)pyridin-2-yl)-2-(3,5-difluorophenyl)ethylcarbamoyl)-4-phenoxypyrrolidine-1-carboxylate], the inhibition at 2 µM in the data set on HIV-IIIb was determined as 0%. This compound also showed a half-maximal cytotoxic concentration (CC50) at 5 days in “in vitro” of 9310 nM.

Regarding `Cc1cc(C(F)(F)F)nn1CC(=O)N[C@@H](Cc1cc(F)cc(F)c1)c1ncccc1-c1ccc(F)c(C(N)=O)c1` [Example 385, (S)-5-(2-(2-(3,5-difluorophenyl)-1-(2-(5-methyl-3-(trifluoromethyl)-1H-pyrazol-1-yl)acetamido)ethyl)pyridin-3-yl)-2-fluorobenzamide], in the data set on HIV-IIIb, the inhibition at 2 µM is 40%. In the data set “in vitro”, the CC50 at 5 days was above 53200 nM.

Take `NC(=O)c1cccc(-c2cccnc2[C@H](Cc2cc(F)cc(F)c2)NC(=O)Cc2c[nH]c3cc(C4CC4)c(=O)[nH]c23)c1` [Example 338C, (S)-3-(2-(1-(2-(6-cyclopropyl-5-oxo-4,5-dihydro-1H-pyrrolo[3,2-b]pyridin-3-yl)acetamido)-2-(3,5-difluorophenyl)ethyl)pyridin-3-yl)benzamide]: in the data set with HIV-IIIb, the inhibition at 2 µM is 35%. This compound also showed a CC50 at 5 days in “in vitro” above 53000 nM.

With `NC(=O)c1cc(-c2ccc[n+]([O-])c2[C@H](Cc2cc(F)cc(F)c2)NC(=O)Cn2nc(C(F)(F)F)c3c2CS(=O)(=O)C3)ccc1F` [Example 218, (S)-3-(3-carbamoyl-4-fluorophenyl)-2-(2-(3,5-difluorophenyl)-1-(2-(5,5-dioxido-3-(trifluoromethyl)-4,6-dihydro-1H-thieno[3,4-c]pyrazol-1-yl)acetamido)ethyl)pyridine 1-oxide], the inhibition at 2 µM in the data set with HIV-IIIb amounted to 0%. Further, the CC50 at 5 days in the data set “in vitro” was above 53200 nM.

`O=C(Cn1nc(C(F)F)c2c1C(F)(F)C1CC21)N[C@@H](Cc1cc(F)cc(F)c1)c1ncccc1-c1cnc2c(c1)CCCN2` (stereo partly drawn) [Example 442, (S)—N-(1-(3-(5,6,7,8-tetrahydro-1,8-naphthyridin-3-yl)-pyridin-2-yl)-2-(3,5-difluorophenyl)ethyl)-2-(3-(difluoromethyl)-5,6-dihydro-4,5-(methano)-6,6-difluoro-cyclopenta[c]pyrazol-1(4H)-yl)acetamide]: the inhibition at 2 µM in the data set with HIV-IIIb is 79%. Besides, the CC50 at 5 days in “in vitro” worked out at 8880 nM.

As for `NC(=O)c1cc(-c2cccnc2[C@H](Cc2cc(F)cc(F)c2)NC(=O)Cn2nc(OCc3ncccn3)c3c2CCCC3)ccc1F` [Example 142C, (S)-5-(2-(2-(3,5-difluorophenyl)-1-(2-(3-(pyrimidin-2-ylmethoxy)-4,5,6,7-tetrahydro-1H-indazol-1-yl)acetamido)ethyl)pyridin-3-yl)-2-fluorobenzamide], the inhibition at 2 µM in the data set with HIV-IIIb was found to be 23%. Also, the CC50 at 5 days in “in vitro” is above 53200 nM.

Take `COc1ccc(-c2cccnc2C(Cc2cc(F)cc(F)c2)NC(=O)Cn2nc(C(F)(F)F)c3c2CCCC3)c(C)c1` (centres unmarked) [Example 6, N-(2-(3,5-difluorophenyl)-1-(3-(4-methoxy-2-methylphenyl)pyridin-2-yl)ethyl)-2-(3-(trifluoromethyl)-4,5,6,7-tetrahydro-1H-indazol-1-yl)acetamide]: the inhibition at 2 µM with HIV-IIIb is 45%. This compound gave a CC50 at 5 days in the data set “in vitro” of 11400 nM.

Consider `NC(=O)c1cc(-c2cccnc2[C@H](Cc2cc(F)cc(F)c2)NC(=O)Cn2nc(C(=O)O)c3c2C2CCC3C2)ccc1F` (stereo partly drawn) [Example 409, (S)-5-(2-(2-(3,5-difluorophenyl)-1-(2-(4,5,6,7-tetrahydro-3-carboxy-4,7-(methano)indazol-1-yl)acetamido)ethyl)pyridin-3-yl)-2-fluorobenzamide], for which the inhibition at 2 µM in the data set on HIV-IIIb is 0%. The compound also registered a CC50 at 5 days in the data set “in vitro” above 53200 nM.
